In brackets after ≈: the same amount, converted by molar mass. Several values for one entry are separate records, joined by “and”; a condition that tells them apart may be missing. Equal entries are not always repeated. Where two headings read alike, the source gives them in different places. Blank lines part the entries; values can stand above or below the molecule they belong to.
How the values were obtained:
[1] = system: porcine pancrelipase (PPE); experiment: Stability in the presence of porcine pancrelipase (PPE); format: in vitro ADME; conditions: ku-zyme Lot 1; 50 μM substrate, pH 7.4, 37° C.
[2] = as above; format: in vitro ADME; conditions: pig, porcine pancrelipase (ku-zyme HP) in phosphate buffer, 50 μM substrate, pH 7.4, 37° C.
Equilibrium solubility = format: physicochemical; conditions: aqueous buffer, thermodynamic from solid, 25 mM phosphate buffer (pH 5), ambient temperature / 25° C.
Procedure: Vials containing excess prodrug in phosphate buffer were rotated for up to 48 hours. After the equilibrium period, samples were pulled, filtered through 0.45 μm Gelman Acrodisc Nylon syringe filter and analyzed for drug concentration using HPLC. The HPLC conditions were: Column. C18, SymmetryShield RP, Waters, 4.6×150 mm, 3.5 micron; Mobile phase A: Acetonitrile; Mobile phase B: 0.1% TFA in water; Flow rate, 1 mL/min; Run Time: 30 min Inj. vol. 20 μL; Detection: 210 nm; Dissolving solvent: Acetonitrile/water (50:50 v:v).

[3] = human, pH 7.4
K. pneumoniae 6485 = experiment: Murine acute systemic infection model; conditions: Murine acute systemic infection vs. K. pneumoniae 6485; oral BID; survival day four post-infection; repeat experiments
[4] = Stability in human intestinal juice (HIJ); conditions: pooled human intestinal juice (4 subjects), buffered, pH 7.4
[5] = humans; given orally as a mixture of two stereoisomers; Foulds et al.; cited from earlier work
K. pneumoniae 1109 = experiment: Murine acute systemic infection model; conditions: Murine acute systemic infection vs. K. pneumoniae 1109; oral BID; survival day four post-infection; repeat experiments
S. pneumoniae 1095 [6] = experiment: Murine acute systemic infection model; conditions: Murine acute systemic infection vs. S. pneumoniae 1095; oral BID; survival day four post-infection; repeat experiments
S. pneumoniae 1095 [7] = experiment: Murine respiratory tract infection model; conditions: Murine respiratory tract infection vs. S. pneumoniae 1095; oral BID for two days from 18 h post-infection; survival day ten; repeat experiments
plasma carnitine = experiment: Acute model of carnitine depletion; format: in vivo; conditions: 200 mg/kg BID orally for 4 days, Sprague-Dawley rats, relative to vehicle control (FIG. 1)
Procedure: Of interest was a comparison between Compound 1 and […] in terms of the prodrug side chains' tendency or lack thereof to deplete plasma carnitine following metabolism of the intact prodrug. This was evaluated in vivo using an acute model of carnitine depletion in Sprague-Dawley rats. To understand the potential impact in vivo, radiolabeled pivalic acid (Compound B1 side chain) and 2-ethylbutyric acid (Compound 1 side chain) were administered orally at a dose of 200 mg/kg BID for 4 days to two separate groups of animals. […] Doses were administered in 100 mM sodium phosphate pH 6.6 at a dose volume of 10 mL/kg. Blood samples were obtained at 24 hour intervals following initiation of the study, processed for plasma and assayed for carnitine levels by LC/MS/MS. A vehicle control consisting of oral administration of an equal volume of buffer without compound was completed as a baseline comparison.

[8] = Pharmacokinetics of total radioactivity after single oral dose; format: in vivo, Sprague-Dawley Rats; conditions: single oral 200 mg/kg; rats
Procedure: A separate study using a single 200 mg/kg dose of each radiolabeled compound (pivalic acid and […]) was completed in rats to determine systemic exposure of dose following oral administration. The oral administration route was chosen because it is expected that the majority of hydrolysis of the prodrugs will occur within the intestine prior to entering systemic circulation. Plasma samples were obtained prior to dosing and at 0.25, 0.5, 1, 4, 8, and 24 hr post-dose. Samples were quantified for radioactivity by liquid scintillation counting and the counts were converted to […] equivalents/mL. As shown in Table 5 and FIG. 2, once absorbed, radioactivity associated with 2-ethylbutyric acid is cleared 4.5 fold faster than pivalic acid, reflecting efficient metabolic processing and excretion of the compound.

H. influenzae BLNAR = experiment: Gerbil otitis media model; conditions: Gerbil otitis media vs. H. influenzae BLNAR, oral TID for two days from 18 h post-infection, bacterial levels in middle ear fluid day four, repeat experiments
[9] = by comparison to intravenous AUCs (Table 4, Foulds et al.), cited from earlier work

PPE Half Life [1]: 4.2 min
Structure (SMILES): CCC(C)C(=O)OCOC(=O)C1=C(S[C@H]2CC[S@@+]([O-])C2)S[C@@H]2[C@@H]([C@@H](C)O)C(=O)N12 (stereo partly shown) [P]

Structure (SMILES): C[C@@H](O)[C@H]1C(=O)N2C(C(=O)OCOC(=O)C(C)(C)C)=C(S[C@H]3CC[S@@+]([O-])C3)S[C@H]12 [Compound B1, reference compound]
half-life at 50 µM ([2]; pH 7.4, ku-zyme lot 2): 22.5 min
solubility (Equilibrium solubility): 389 µg/mL (≈ 839 µM)
HIJ Clint (avg) [3]: 0.11 mL/min
PD50 (K. pneumoniae 6485): >100 mg/kg
Km [4]: 29 µM

half-life at 50 µM ([2]; pH 7.4, ku-zyme Lot 1): 7.6 min
Structure (SMILES): C[C@@H](O)[C@H]1C(=O)N2C(C(=O)OCOC(=O)CC(C)(C)C)=C(S[C@H]3CC[S@@+]([O-])C3)S[C@H]12 [W]

half-life at 50 µM ([2]; pH 7.4, ku-zyme Lot 1): 6.8 min
Structure (SMILES): CCC(C)C(=O)OCOC(=O)C1=C(S[C@H]2CC[S@@+]([O-])C2)S[C@@H]2[C@@H]([C@@H](C)O)C(=O)N12 (stereo partly shown) [H]

half-life at 50 µM ([2]; pH 7.4, ku-zyme Lot 1): 39.4 min
Structure (SMILES): CCC(C)(CC)C(=O)OCOC(=O)C1=C(S[C@H]2CC[S@@+]([O-])C2)S[C@@H]2[C@@H]([C@@H](C)O)C(=O)N12 [M]

half-life at 50 µM ([2]; pH 7.4, ku-zyme Lot 1): 11.1 min
Structure (SMILES): CC(C)C(C)(C)C(=O)OCOC(=O)C1=C(S[C@H]2CC[S@@+]([O-])C2)S[C@@H]2[C@@H]([C@@H](C)O)C(=O)N12 [N]

half-life at 50 µM ([2]; pH 7.4, ku-zyme Lot 1): 14.4 min
Structure (SMILES): CCCC(C)(C)C(=O)OCOC(=O)C1=C(S[C@H]2CC[S@@+]([O-])C2)S[C@@H]2[C@@H]([C@@H](C)O)C(=O)N12 [Compound I]

half-life at 50 µM ([2]; pH 7.4, ku-zyme Lot 1): 14.5 min
Structure (SMILES): CCCCC(C)(C)C(=O)OCOC(=O)C1=C(S[C@H]2CC[S@@+]([O-])C2)S[C@@H]2[C@@H]([C@@H](C)O)C(=O)N12 [K]

Structure (SMILES): CC(O)C1C(=O)N2C(C(=O)OCOC(=O)C(C)(C)C)=C(SC3CC[S+]([O-])C3)SC12 (stereo not shown) [sulopenem POM ester]
oral bioavailability (in words) [5]: orally bioavailable in humans

half-life at 50 µM ([2]; pH 7.4, ku-zyme Lot 1): 11 min
Structure (SMILES): CCC(C)(C)C(=O)OCOC(=O)C1=C(S[C@H]2CC[S@@+]([O-])C2)S[C@@H]2[C@@H]([C@@H](C)O)C(=O)N12 [J]

half-life at 50 µM ([2]; pH 7.4, ku-zyme Lot 1): 6.4 min
Structure (SMILES): CC(C)CC(=O)OCOC(=O)C1=C(S[C@H]2CC[S@@+]([O-])C2)S[C@@H]2[C@@H]([C@@H](C)O)C(=O)N12 [E]

half-life at 50 µM ([2]; pH 7.4, ku-zyme Lot 1): 5.3 min
Structure (SMILES): CCC(C(=O)OCOC(=O)C1=C(S[C@H]2CC[S@@+]([O-])C2)S[C@@H]2[C@@H]([C@@H](C)O)C(=O)N12)C(C)C (stereo partly shown) [R]

half-life at 50 µM ([2]; pH 7.4, ku-zyme Lot 1): 4.8 min
Structure (SMILES): CCCC(C)C(=O)OCOC(=O)C1=C(S[C@H]2CC[S@@+]([O-])C2)S[C@@H]2[C@@H]([C@@H](C)O)C(=O)N12 (stereo partly shown) [Q]

half-life at 50 µM ([2]; pH 7.4, ku-zyme Lot 1): 7.7 min
Structure (SMILES): CC(C)C(C(=O)OCOC(=O)C1=C(S[C@H]2CC[S@@+]([O-])C2)S[C@@H]2[C@@H]([C@@H](C)O)C(=O)N12)C(C)C [T]

half-life at 50 µM ([2]; pH 7.4, ku-zyme Lot 1): 21.2 min
HIJ Clint (avg) [3]: 0.18 mL/min
Km [4]: 390 µM
Structure (SMILES): CC(=O)OCOC(=O)C1=C(S[C@H]2CC[S@@+]([O-])C2)S[C@@H]2[C@@H]([C@@H](C)O)C(=O)N12 [G]

half-life at 50 µM ([2]; pH 7.4, ku-zyme Lot 1): 8 min
Structure (SMILES): C[C@@H](O)[C@H]1C(=O)N2C(C(=O)OCOC(=O)C(C(C)(C)C)C(C)(C)C)=C(S[C@H]3CC[S@@+]([O-])C3)S[C@H]12 [Y]

half-life at 50 µM ([2]; pH 7.4, ku-zyme Lot 1): 6.3 min
Structure (SMILES): C[C@@H](O)[C@H]1C(=O)N2C(C(=O)OCOC(=O)C(C)(C)C(C)(C)C)=C(S[C@H]3CC[S@@+]([O-])C3)S[C@H]12 [S]

half-life at 50 µM ([2]; pH 7.4, ku-zyme Lot 1): 8.3 min
Structure (SMILES): CCCC(CCC)C(=O)OCOC(=O)C1=C(S[C@H]2CC[S@@+]([O-])C2)S[C@@H]2[C@@H]([C@@H](C)O)C(=O)N12 [O]

half-life at 50 µM ([2]; pH 7.4, ku-zyme Lot 1): 4.7 min
Structure (SMILES): CCC(=O)OCOC(=O)C1=C(S[C@H]2CC[S@@+]([O-])C2)S[C@@H]2[C@@H]([C@@H](C)O)C(=O)N12 [X]

Structure (SMILES): CCOC(C)(C)C(=O)OCOC(=O)C1=C(S[C@H]2CC[S@@+]([O-])C2)S[C@@H]2[C@@H]([C@@H](C)O)C(=O)N12 [Compound 2, (2-Ethoxy-2-methyl-1-oxopropoxy)methyl (5R,6S)-6-[(1R)-1-hydroxyethyl]-7-oxo-3-[[(1R,3S)-tetrahydro-1-oxido-3-thienyl]thio]-4-thia-1-azabicyclo[3.2.0]hept-2-ene-2-carboxylate]
half-life at 50 µM ([2]; pH 7.4, ku-zyme Lot 1): 19.1 min
solubility (Equilibrium solubility): 2900 µg/mL (≈ 5870 µM)
HIJ Clint (avg) [3]: 0.13 mL/min
PD50 (K. pneumoniae 1109): 12.5 mg/kg and 16.2 mg/kg
PD50 (S. pneumoniae 1095 [6]): 7.9 mg/kg and 6.3 mg/kg and 11.0 mg/kg
PD50 (S. pneumoniae 1095 [7]): 19.7 mg/kg and 38.5 mg/kg
Km [4]: 105 µM

half-life at 50 µM ([2]; pH 7.4, ku-zyme Lot 1): 4.7 min
Structure (SMILES): CC(C)C(=O)OCOC(=O)C1=C(S[C@H]2CC[S@@+]([O-])C2)S[C@@H]2[C@@H]([C@@H](C)O)C(=O)N12 [F]

half-life at 50 µM ([2]; pH 7.4, ku-zyme Lot 1): 6.4 min
Structure (SMILES): CC(C)CC(CC(C)C)C(=O)OCOC(=O)C1=C(S[C@H]2CC[S@@+]([O-])C2)S[C@@H]2[C@@H]([C@@H](C)O)C(=O)N12 [U]

clearance of radioactivity, fold faster than pivalic acid [8]: 4.5 fold
Structure (SMILES): CCC(CC)C(=O)O [2-ethylbutyric acid]
change in plasma carnitine (plasma carnitine): statistically insignificant changes in plasma carnitine

Structure (SMILES): C[C@@H](O)[C@H]1C(=O)N2C(C(=O)OCOC(=O)OC3CCC(C)(C)CC3)=C(S[C@H]3CC[S@@+]([O-])C3)S[C@H]12 [Compound A]
half-life at 50 µM ([2]; pH 7.4, ku-zyme Lot 1): 3.9 ± 1.1 min
half-life at 50 µM ([2]; pH 7.4, ku-zyme lot 2): 6.3 min
solubility (Equilibrium solubility): 136 µg/mL (≈ 255 µM)
HIJ Clint (avg) [3]: 0.38 mL/min
ED50 (H. influenzae BLNAR): 8.7 mg/kg
ED50 (H. influenzae BLNAR; Haemophilus influenzae, in Meriones unguiculatus, po): 6.9 mg/kg
PD50 (K. pneumoniae 1109): 10.1 mg/kg and 15.3 mg/kg
PD50 (K. pneumoniae 6485): 40.7 mg/kg
PD50 (S. pneumoniae 1095 [6]): 9.0 mg/kg and 15.3 mg/kg
PD50 (S. pneumoniae 1095 [7]): 17.8 mg/kg and 20.8 mg/kg
Km [4]: 300 µM

half-life at 50 µM ([2]; pH 7.4, ku-zyme Lot 1): 21.1 min
Structure (SMILES): CCC(CC)(CC)C(=O)OCOC(=O)C1=C(S[C@H]2CC[S@@+]([O-])C2)S[C@@H]2[C@@H]([C@@H](C)O)C(=O)N12 [Compound C]

half-life at 50 µM ([2]; pH 7.4, ku-zyme Lot 1): 10.5 min
Structure (SMILES): CC(C)CC(C)(C)C(=O)OCOC(=O)C1=C(S[C@H]2CC[S@@+]([O-])C2)S[C@@H]2[C@@H]([C@@H](C)O)C(=O)N12 [V]

Structure (SMILES): C[C@@H](O)[C@H]1C(=O)N2C(C(=O)OCOC(=O)C(C)(C)C)=C(S[C@H]3CC[S@@+]([O-])C3)S[C@H]12 (racemic) [Compound B2, reference compound]
half-life at 50 µM ([2]; pH 7.4, ku-zyme Lot 1): 11.6 min
half-life at 50 µM ([2]; pH 7.4, ku-zyme lot 2): 19.6 min
HIJ Clint (avg) [3]: 0.09 mL/min
fraction absorbed ([9]; sulopenem equivalent dose 205 mg): 38.5%
fraction absorbed ([9]; sulopenem equivalent dose 409 mg): 33.5%
Km [4]: 40 µM
